Values of other authors, collected in US20240108573A1, “NANOLIPID CARRIER BASED FORMULATION FOR BRAIN DELIVERY THROUGH INTRANASAL ROUTE AND ITS PREPARATION PROCESS” (AMRITA SCHOOL OF PHARMACY, AMRITA VISHWA VIDYAPEETHAM, priority 2022, published 2024).

biological half-life: 15-22 hrs
SMILES: O=C1NC(=O)C(c2ccccc2)(c2ccccc2)N1 [phenytoin sodium]
